Series [1] deals with intraerythrocytic P. falciparum parasites. Also noted: method as in PMID 12792024. Conditions: read-out: IC50 growth of intraerythrocytic P. falciparum parasites in vitro; cited from earlier work.
A further series relates to P. berghei parasites. Details: method as in PMID 12792024. The conditions noted are these: mice infected with P. berghei, 25 mg/kg (i.p.) twice daily; cited from earlier work.
In series [2] the test system is hepatic stage and ookinetes of P. berghei. Details: method as in PMID 21169382, PMID 21402842. The conditions noted are these: cited from earlier work.
Another series deals with PfHT (Plasmodium falciparum, UniProt Q7KWJ5). Conditions: read-out: Ki for glucose uptake by PfHT; cited from earlier work.
Chain of PfHT (Q7KWJ5 whole entry): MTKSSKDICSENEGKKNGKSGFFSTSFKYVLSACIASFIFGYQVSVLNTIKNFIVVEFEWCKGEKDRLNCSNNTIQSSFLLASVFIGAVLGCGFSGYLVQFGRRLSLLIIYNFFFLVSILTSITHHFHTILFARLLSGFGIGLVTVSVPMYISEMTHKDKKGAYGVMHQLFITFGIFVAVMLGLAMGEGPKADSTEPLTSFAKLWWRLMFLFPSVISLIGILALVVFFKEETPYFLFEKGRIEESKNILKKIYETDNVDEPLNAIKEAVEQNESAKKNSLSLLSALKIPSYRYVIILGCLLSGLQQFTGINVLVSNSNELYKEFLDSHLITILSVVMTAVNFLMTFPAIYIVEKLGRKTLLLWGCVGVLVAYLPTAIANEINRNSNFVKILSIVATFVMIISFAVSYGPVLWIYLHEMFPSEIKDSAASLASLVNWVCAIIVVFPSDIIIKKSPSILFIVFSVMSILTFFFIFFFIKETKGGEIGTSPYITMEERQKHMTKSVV
For another series, the target named is T1, human GLUT1 (Homo sapiens, UniProt P11166).
T1 sequence (P11166 1-492): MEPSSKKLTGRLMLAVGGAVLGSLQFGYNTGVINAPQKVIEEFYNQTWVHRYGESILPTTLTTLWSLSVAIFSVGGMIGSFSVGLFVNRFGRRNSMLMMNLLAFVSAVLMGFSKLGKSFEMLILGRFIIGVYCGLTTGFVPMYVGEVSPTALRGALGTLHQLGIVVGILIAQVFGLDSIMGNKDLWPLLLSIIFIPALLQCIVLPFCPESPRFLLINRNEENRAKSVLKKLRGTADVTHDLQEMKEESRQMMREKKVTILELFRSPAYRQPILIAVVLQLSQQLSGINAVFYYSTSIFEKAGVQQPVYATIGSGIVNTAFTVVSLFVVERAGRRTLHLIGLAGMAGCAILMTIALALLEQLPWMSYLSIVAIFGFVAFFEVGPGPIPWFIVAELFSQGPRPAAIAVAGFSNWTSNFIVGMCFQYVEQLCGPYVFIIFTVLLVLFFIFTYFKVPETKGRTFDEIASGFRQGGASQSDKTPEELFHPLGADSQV
Conditions: 1 mM concentration; cited from earlier work.

In series [3] the test system is BJ cell line (human foreskin fibroblasts). Put plainly: Mammalian cell drug susceptibility assay (Cell Titer Glo, 72 h). Type of series: cell-based. The procedure: The BJ cell line (human foreskin fibroblasts), which express GLUT1 [26], was purchased from the ATTC and cultured according to recommendations. 1000 exponentially growing cells were plated per well (25 μL) in white polystyrene flat bottom sterile 384-well tissue culture treated plates (Corning), and incubated overnight at 37°C in a humidified 5% CO2 incubator. DMSO inhibitor stock solutions were pin-transferred (V&P Scientific) the following day. Plates were placed back in the incubator for 72 h incubation and equilibrated at room temperature for 20 min before addition of 25 μL Cell Titer Glo (Promega) to each well. Plates were shaken on an orbital shaker for 2 min at 500 rpm. Luminescence was read after 15 min on an Envision plate reader (Perkin Elmer). EC50 values were calculated with a custom program (RISE, Robust Investigation of Screening Experiments) using a four-parameter logistic equation.

A further series is described as follows: Solubility assay. The class given is physicochemical. Conditions: aqueous buffer, kinetic from dmso stock, PBS pH 7.4, room temperature. The procedure:
Next, 5 μL of this reference stock plate was mixed with 70 μL of 1-propanol and 75 μL of PBS (pH 7.4) to make the reference plate, and the UV spectrum (250–500 nm) of the reference plate was read. Then, 6 μL of 10 mM test compound stock was added to 600 μL of PBS, pH 7.4, in a 96-well storage plate and mixed. The storage plate was sealed and incubated at room temperature for 18 h. The suspension was then filtered through a 96-well filter plate (pION Inc.). Next, 75 μL of filtrate was mixed with 75 μL of 1-propanol to make the sample plate, and the UV spectrum of the sample plate was read. Calculations were done using μSOL Evolution software based on the area under the curve (AUC) of the UV spectrum of the sample plate and the reference plate. All compounds were tested in triplicate.

The nature of series [4]: Parallel artificial membrane permeability assay (PAMPA). Conditions: for Permeation: pH 7.4; for Retention: retention in artificial membrane. The procedure: A parallel artificial membrane permeability assay (PAMPA) was conducted on a Biomek FX lab automation workstation (Beckman Coulter, Inc.) with PAMPA evolution 96 command software (pION Inc.) as follows: 3 μL of 10 mM test compound stock was mixed with 600 μL of PBS (pH 7.4) to make diluted test compound. Then 150 μL of diluted test compound was transferred to a UV plate (pION Inc.), and the UV spectrum was read as the reference plate. The membrane on a preloaded PAMPA sandwich (pION Inc.) was painted with 4 μL of GIT lipid (pION Inc.). The acceptor chamber was then filled with 200 μL of acceptor solution buffer (pION Inc.), and the donor chamber was filled with 180 μL of diluted test compound. The PAMPA sandwich was assembled, placed on the Gut-Box controlled environment chamber and stirred for 30 min. The aqueous boundary layer was set to 40 μm for stirring. The UV spectrum (250–500 nm) of the donor and the acceptor were read. The permeability coefficient was calculated using PAMPA Evolution 96 Command software (pION Inc.) based on the AUC of the reference plate, the donor plate, and the acceptor plate. All compounds were tested in triplicate.

≈ marks a conversion by molar mass, not a printed value. Counter-ions that a name gives are not always drawn.

What is called IC50 is the concentration needed to halve the response being measured. As a reminder, the Ki is a dissociation constant, usually derived from enzyme kinetics or from competition with a known ligand. `C=CCCCCCCCCCO[C@@H]([C@H](O)[C@H](O)CO)[C@@H](O)C=O` [compound 3361, 3-O-((undec-10-en)-1-yl)-D-glucose]: the IC50 in series [1] was 15.7 µM. The reduction in parasitemia in the series with P. berghei parasites is given as 40%. Moreover, the “inhibition of viability of liver and mosquito stages” value in series [2] is listed as “strong inhibition of viability”. Further, the Ki on PfHT was 53 µM. In addition, the “inhibition of GLUT1” value on human GLUT1 is “no significant inhibition”.

What is called EC50 is the concentration at which the effect is half-maximal. Higher therefore signals weaker potency. `CC(C)=CCC[C@]1(C)C=Cc2c(O)c3c(c(CC=C(C)C)c2O1)O[C@]12C(=C[C@@H]4C[C@H]1C(C)(C)O[C@@]2(C/C=C(/C)C(=O)O)C4=O)C3=O` [Gambogic acid, gambogic acid, reference compound] yielded an EC50 in series [3] of 2.5 µM.

The solubility is how much of the substance goes into solution per volume. Regarding `CCCSc1ccc2nc(NC(=O)OC)[nH]c2c1` [Albendazole, albendazole, reference compound], the concentration in solution in “Solubility assay” (solubility at 18 h) was 5.9 ± 2.3 µM (≈ 1.57 µg/mL). Moreover, in series [4], the Permeation is given as 286 ND 10^-6 cm/s and the Retention was determined as 59 ± 27%.

`CNC(=C[N+](=O)[O-])NCCSCc1ccc(CN(C)C)o1` [Ranitidine HCl, ranitidine, reference compound]: the solubility at 18 h in the series “Solubility assay” (PBS buffer) amounted to 84 ± 1.2 µM. In series [4], the Permeation is given as 0 ± 0 10^-6 cm/s and the Retention is listed as 1.7 ± 1.3%.

In “Solubility assay” (PBS buffer), `NC(=O)N1c2ccccc2C=Cc2ccccc21` [Carbamazepine, carbamazepine, reference compound] gave a solubility at 18 h of 87 ± 1.2 µM (≈ 20.6 µg/mL). Besides, in series [4], the Permeation is reported as 85 ± 21 10^-6 cm/s and the Retention is reported as 43 ± 3.0%.

The record behind these values is paper PMC4404333, “Identification of Selective Inhibitors of the Plasmodium falciparum Hexose Transporter PfHT by Screening Focused Libraries of Anti-Malarial Compounds” (PLoS ONE, 2015).
